# Assay results published in publication PMC9743094, “Synthesis and Evaluation of Polymyxins Bearing Reductively Labile Disulfide-Linked Lipids” (Journal of Medicinal Chemistry, 2022).
# Experiments:
# [1] = system: A. baumannii (ATCC 19606); assay type: cell-based; conditions: broth microdilution, CLSI, CAMHB, 10^6 CFU/mL, 37 °C, visual growth; triplicate experiments
# In short: (§1)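 Broth microdilution per CLSI in cation-adjusted Mueller–Hinton Broth (12.5 μg/mL Mg^2+, 20 μg/mL Ca^2+), inoculum 10^6 CFU/mL final, 37 °C. MIC taken as lowest concentration with no visible growth, consistent across at least duplicate experiments.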
# E. coli (ATCC 25922) = assay type: cell-based; conditions: broth microdilution, CLSI, CAMHB, 10^6 CFU/mL, 37 °C, visual growth; triplicate experiments
# In short: as §1
# [2] = system: K. pneumoniae (ATCC 13883); assay type: cell-based; conditions: broth microdilution, CLSI, CAMHB, 10^6 CFU/mL, 37 °C, visual growth; triplicate experiments
# In short: as §1
# [3] = system: P. aeruginosa (ATCC 27853); assay type: cell-based; conditions: broth microdilution, CLSI, CAMHB, 10^6 CFU/mL, 37 °C, visual growth; triplicate experiments
# In short: as §1
# [4] = system: differentiated conditionally immortalized PTECs (ciPTECs, OAT-1); assay: ciPTEC toxicity assay (PrestoBlue); assay type: cell-based, human; conditions: 37 °C
# In short: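 ciPTEC (OAT-1) cells were differentiated 24 h at 33 °C then 6 days at 37 °C before 24 h exposure at 37 °C to serially diluted compounds in serum-free medium. Viability by 10% PrestoBlue fluorescence (530/590 nm), relative to untreated cells. TC50 from nonlinear regression with bottom fixed at 0; triplicates.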
# [5] = system: Red blood cells from defibrinated sheep blood; assay: Hemolysis assay; assay type: cell-based; conditions: 128 μg/mL, 1 h, 37 °C, absorbance 415 nm, normalized to 0.1% Triton-X100, triplicates
# Description: Red blood cells from defibrinated sheep blood (Thermo Fisher Scientific) were centrifuged (400g for 15 min at 4 °C) and washed with PBS containing 0.002% Tween20 four times. The red blood cells were normalized to obtain an absorbance value between 2.5 and 3.0 at 415 nm to stay in the linear range of the assay with maximum sensitivity. A serial dilution of the compounds (128–4 μg/mL, 75 μL) was prepared in a 96-well plate. Each plate contained a positive control (0.1% Triton-X final concentration, 75 μL) and a negative control (buffer, 75 μL). The normalized blood cells (75 μL) were added, and the plates were incubated at 37 °C for 1 h while shaking at 500 rpm. After incubation, the plates were centrifuged (800g for 5 min at RT) and 25 μL of the supernatant was transferred to a second plate, containing 100 μL of PBS in each well. Absorbance was read-out at 415 nm. Values were corrected for background (negative control) and transformed to a percentage relative to the positive control. Results shown (Supporting Information Figure S2) are based on triplicate data.
# Stability assessment in presence of glutathione
# Figure S1. Compound stability upon incubation with low (5 μM) or high (5 mM) glutathione (GSH) concentration.
# Compounds were incubated in PBS with the indicated concentration glutathione for 24 hours. Indicated data points are
# based upon integration of HPLC UV data.
# Figure S2. […]
# A. baumannii BAA-747 = assay type: cell-based; conditions: broth microdilution, CAMHB
# Description: (§2) Minimum inhibitory concentrations (MICs) on relevant Gram-negative bacteria were determined by broth microdilution, in accordance with CLSI guidelines. Indicated bacteria were taken from glycerol stocks and incubated overnight on blood agar at 37 °C. Well-isolated colonies were taken, suspended in TSB (5 mL), and grown to an OD600 of 0.5. Compounds to be tested were dissolved in DMSO (6.4 mg/mL), diluted in cation-adjusted Mueller–Hinton Broth (CAMHB) (12.5 and 20 μg/mL Mg^2+ and Ca^2+, respectively), and diluted serially on polypropylene microtiter plates. To the diluted compounds (50 μL per well) was added 50 μL of relevant bacterial suspension, to yield a final concentration of 10^6 CFU/mL. Plates were covered by adhesive gas-permeable membranes and incubated at 37 °C. MIC was read out as the lowest concentration that inhibited visual bacterial growth. Shown values are consistent results from at least duplicate experiments.
# (§3) Bacterial strains used for MIC assays and extended MIC assessment
# (§4) Strains: The following strains were obtained from BEI Resources, NIAID, NIH: E. Coli M0072, strain
# (§5) Table S2. […] Values are given in μg/mL.
# (§6) Species Strain ID Resistance Polymyxin B 18b 23a 24a
# A. baumannii NRZ-00687 = assay type: cell-based; conditions: resistance indicator: NDM-2; broth microdilution, CAMHB
# Description: as §2, §3, §4, §5, §6
# A. baumannii RUH-134 = assay type: cell-based; conditions: resistance indicator: Multiple; broth microdilution, CAMHB
# Description: as §2, §3, §4, §5, §6
# E. coli 1793 = assay type: cell-based; conditions: resistance indicator: NDM-1; broth microdilution, CAMHB
# Description: as §2, §3, §4, §5, §6
# E. coli JS136 = assay type: cell-based; conditions: resistance indicator: OXA-48; broth microdilution, CAMHB
# Description: as §2, §3, §4, §5, §6
# E. coli M0072 = assay type: cell-based; conditions: resistance indicator: Multiple; broth microdilution, CAMHB
# Description: as §2, §3, §4, §5, §6
# K. pneumoniae ATCC 29665 = assay type: cell-based; conditions: broth microdilution, CAMHB
# Description: as §2, §3, §4, §5, §6
# K. pneumoniae KP1.53 = assay type: cell-based; conditions: resistance indicator: MDR; broth microdilution, CAMHB
# Description: as §2, §3, §4, §5, §6
# K. pneumoniae RC0045 = assay type: cell-based; conditions: resistance indicator: OXA-48; broth microdilution, CAMHB
# Description: as §2, §3, §4, §5, §6
# P. aeruginosa 2018-007 = assay type: cell-based; conditions: resistance indicator: IMP-7; broth microdilution, CAMHB
# Description: as §2, §3, §4, §5, §6
# P. aeruginosa 2251 = assay type: cell-based; conditions: resistance indicator: VIM-2; broth microdilution, CAMHB
# Description: as §2, §3, §4, §5, §6
# P. aeruginosa ATCC 10145 = assay type: cell-based; conditions: broth microdilution, CAMHB
# Description: as §2, §3, §4, §5, §6
# P. aeruginosa M120 = assay type: cell-based; conditions: resistance indicator: OXA-50, blaPAO; broth microdilution, CAMHB
# Description: as §2, §3, §4, §5, §6
# A. baumanii (ATCC 17961) = assay type: cell-based; conditions: broth microdilution, CAMHB
# Description: as §2
# (§7) Table S3. MIC values [µg/mL] and relative toxicity values for disulfide containing polymyxin derivative 18b and
# (§8) non-disulfide containing analogue 45. […]
# P. aeruginosa (PAO1) = assay type: cell-based; conditions: broth microdilution, CAMHB
# Description: as §2, §7, §8
substance,measurement,setting,value
Polymyxin B [reference compound],MIC A. baumannii (ATCC 19606),[1],0.25 µg/mL
same,MIC E. coli (ATCC 25922),E. coli (ATCC 25922),1 µg/mL
same,MIC K. pneumoniae (ATCC 13883),[2],0.25 µg/mL
same,MIC P. aeruginosa (ATCC 27853),[3],1 µg/mL
same,ciPTEC Toxicity Index (relative to polymyxin B),"[4]; TC50 expressed relative to polymyxin B, 24 h incubation, serum-free medium, PrestoBlue fluorescence, nonlinear regression, triplicate",1.0
same,"TC50, Day 1","[4]; cell batch/analysis Day 1, ciPTEC, 24 h, PrestoBlue, non-linear regression with bottom constraint at 0, triplicates",80 µM
same,"TC50, Day 2","[4]; cell batch/analysis Day 2, ciPTEC, 24 h, PrestoBlue, non-linear regression with bottom constraint at 0, triplicates",41 µM
same,percent hemolysis,[5],below 5%
same,MIC A. baumannii BAA-747,A. baumannii BAA-747,0.25 µg/mL
same,MIC A. baumannii NRZ-00687,A. baumannii NRZ-00687,0.25 µg/mL
same,MIC A. baumannii RUH-134,A. baumannii RUH-134,0.25 µg/mL
same,MIC E. coli 1793,E. coli 1793,0.063 µg/mL
same,MIC E. coli JS136,E. coli JS136,0.125 µg/mL
same,MIC E. coli M0072,E. coli M0072,0.125 µg/mL
same,MIC K. pneumoniae ATCC 29665,K. pneumoniae ATCC 29665,0.25 µg/mL
same,MIC K. pneumoniae KP1.53,K. pneumoniae KP1.53,0.5 µg/mL
same,MIC K. pneumoniae RC0045,K. pneumoniae RC0045,0.25 µg/mL
same,MIC P. aeruginosa 2018-007,P. aeruginosa 2018-007,2 µg/mL
same,MIC P. aeruginosa 2251,P. aeruginosa 2251,1 µg/mL
same,MIC P. aeruginosa ATCC 10145,P. aeruginosa ATCC 10145,1 µg/mL
same,MIC P. aeruginosa M120,P. aeruginosa M120,1 µg/mL
same,MIC A. baumanii (ATCC 17961),A. baumanii (ATCC 17961),0.25 µg/mL
same,MIC P. aeruginosa (PAO1),P. aeruginosa (PAO1),0.5 µg/mL
